# Literature values in patent publication US7863273B2, “Process for the preparation of an optically active 5H-pyrrolo [3,4-B] pyrazine derivative” (Glenmark Generics Ltd., priority 2006, dated 2011).
# Experiments:
# [1] = tested on: central benzodiazepine receptor sites; conditions: relative to zopiclone (racemate)
# [2] = tested on: writhing reflex; conditions: relative to zopiclone (racemate)
# [3] = tested on: pentetrazol-induced convulsions; conditions: relative to zopiclone (racemate)
# [4] = not given; remark: listed apart in the source
SMILES,potency of action: affinity for central benzodiazepine receptor sites [1],activity as compared to the racemate,potency of action: writhing reflex test in mice [2],potency of action: antagonist activity with respect to pentetrazol-induced convulsions [3],toxicity as compared to the racemate [4]
"CN1CCN(C(=O)O[C@@H]2c3nccnc3C(=O)N2c2ccc(Cl)cn2)CC1 (single isomer, unassigned) [laevorotatory isomer]",almost inactive,almost inactive,almost inactive,almost inactive,more toxic than the racemate
"CN1CCN(C(=O)O[C@H]2c3nccnc3C(=O)N2c2ccc(Cl)cn2)CC1 [dextrorotatory isomer, (+)-(5S)-6-(chloropyridin-2-yl)-7-oxo-6,7-dihydro-5H-pyrrol[3,4-b]pyrazin-5-yl 4-methylpiperazine-1-carboxylate]",approximately twice as active,approximately twice as active,approximately twice as active,approximately twice as active,lower toxicity
